Laboratory results reported in ChEMBL document CHEMBL1649134, “Occurrence of efflux mechanism and cephalosporinase variant in a population of Enterobacter aerogenes and Klebsiella pneumoniae isolates producing extended-spectrum beta-lactamases” (2009).
In brackets after ≈: the same amount, converted by molar mass.

Legend:
[1] = system: Klebsiella aerogenes; experiment: Antimicrobial activity against multidrug resistant Enterobacter aerogenes ATCC 15038 harboring pDrive plasmid by broth dilution method; type: functional
[2] = system: Klebsiella aerogenes; experiment: Antimicrobial activity against multidrug resistant Enterobacter aerogenes isolate 23 by broth dilution method; type: functional
[3] = system: Klebsiella aerogenes; experiment: Antimicrobial activity against multidrug resistant Enterobacter aerogenes isolate 8 by broth dilution method; type: functional
[4] = system: Klebsiella pneumoniae; experiment: Antimicrobial activity against multidrug resistant Klebsiella pneumoniae isolate 14 by broth dilution method; type: functional
[5] = system: Klebsiella aerogenes; experiment: Antimicrobial activity against multidrug resistant Enterobacter aerogenes isolate 27 by broth dilution method; type: functional
[6] = system: Klebsiella aerogenes; experiment: Antimicrobial activity against multidrug resistant Enterobacter aerogenes isolate 2 by broth dilution method; type: functional
[7] = system: Klebsiella pneumoniae; experiment: Antimicrobial activity against multidrug resistant Klebsiella pneumoniae isolate 2 by broth dilution method; type: functional
[8] = system: Klebsiella aerogenes; experiment: Antimicrobial activity against multidrug resistant Enterobacter aerogenes isolate 6 by broth dilution method; type: functional
[9] = system: Klebsiella pneumoniae; experiment: Antimicrobial activity against multidrug resistant Klebsiella pneumoniae isolate 4 by broth dilution method; type: functional
[10] = system: Klebsiella pneumoniae; experiment: Antimicrobial activity against multidrug resistant Klebsiella pneumoniae isolate 10 by broth dilution method; type: functional
[11] = system: Klebsiella aerogenes; experiment: Antimicrobial activity against multidrug resistant Enterobacter aerogenes isolate 7 by broth dilution method; type: functional
[12] = system: Klebsiella aerogenes; experiment: Antimicrobial activity against multidrug resistant Enterobacter aerogenes isolate 4 by broth dilution method; type: functional
[13] = system: Klebsiella aerogenes; experiment: Antimicrobial activity against multidrug resistant Enterobacter aerogenes isolate 24 by broth dilution method; type: functional
[14] = system: Escherichia coli; experiment: microbe, parasite or virus in culture; settings: DH5[alpha]
Description: Antimicrobial activity against multidrug resistant Escherichia coli DH5[alpha] harboring pACM204 plasmid by broth dilution method

[15] = system: Klebsiella aerogenes; experiment: Antimicrobial activity against multidrug resistant Enterobacter aerogenes isolate 26 by broth dilution method; type: functional
[16] = system: Escherichia coli; experiment: microbe, parasite or virus in culture; settings: ATCC 35218
Description: Antimicrobial activity against multidrug resistant Escherichia coli ATCC 35218 harboring pDrive plasmid expressing ampC gene by broth dilution method

[17] = system: Klebsiella pneumoniae; experiment: Antimicrobial activity against multidrug resistant Klebsiella pneumoniae isolate 15 by broth dilution method; type: functional
[18] = system: Escherichia coli; experiment: microbe, parasite or virus in culture; settings: DH5[alpha]; remark: listed apart in the source
Description: Antimicrobial activity against multidrug resistant Escherichia coli DH5[alpha] harboring pDrive plasmid by broth dilution method

[19] = system: Klebsiella aerogenes; experiment: Antimicrobial activity against multidrug resistant Enterobacter aerogenes isolate 11 by broth dilution method; type: functional
[20] = system: Klebsiella pneumoniae; experiment: Antimicrobial activity against multidrug resistant Klebsiella pneumoniae isolate 12 by broth dilution method; type: functional
[21] = system: Klebsiella aerogenes; experiment: Antimicrobial activity against multidrug resistant Enterobacter aerogenes isolate 13 by broth dilution method; type: functional
[22] = system: Klebsiella aerogenes; experiment: Antimicrobial activity against multidrug resistant Enterobacter aerogenes isolate 15 by broth dilution method; type: functional
[23] = system: Klebsiella pneumoniae; experiment: Antimicrobial activity against multidrug resistant Klebsiella pneumoniae isolate 13 by broth dilution method; type: functional
[24] = system: Klebsiella aerogenes; experiment: Antimicrobial activity against multidrug resistant Enterobacter aerogenes isolate 17 by broth dilution method; type: functional
[25] = system: Klebsiella pneumoniae; experiment: Antimicrobial activity against multidrug resistant Klebsiella pneumoniae isolate 9 by broth dilution method; type: functional
[26] = system: Klebsiella aerogenes; experiment: Antimicrobial activity against multidrug resistant Enterobacter aerogenes isolate 19 by broth dilution method; type: functional
[27] = system: Klebsiella aerogenes; experiment: Antimicrobial activity against multidrug resistant Enterobacter aerogenes isolate 5 by broth dilution method; type: functional
[28] = system: Klebsiella pneumoniae; experiment: Antimicrobial activity against multidrug resistant Klebsiella pneumoniae isolate 7 by broth dilution method; type: functional
[29] = system: Klebsiella aerogenes; experiment: Antimicrobial activity against multidrug resistant Enterobacter aerogenes ATCC 15038 by broth dilution method; type: functional
[30] = system: Klebsiella pneumoniae; experiment: Antimicrobial activity against multidrug resistant Klebsiella pneumoniae isolate 1 by broth dilution method; type: functional
[31] = system: Klebsiella aerogenes; experiment: Antimicrobial activity against multidrug resistant Enterobacter aerogenes ATCC 15038 harboring pDrive plasmid expressing ampC gene by broth dilution method; type: functional
[32] = system: Klebsiella aerogenes; experiment: Antimicrobial activity against multidrug resistant Enterobacter aerogenes isolate 25 by broth dilution method; type: functional
[33] = system: Klebsiella pneumoniae; experiment: Antimicrobial activity against multidrug resistant Klebsiella pneumoniae isolate 11 by broth dilution method; type: functional
[34] = system: Klebsiella pneumoniae; experiment: Antimicrobial activity against multidrug resistant Klebsiella pneumoniae isolate 3 by broth dilution method; type: functional
[35] = system: Klebsiella pneumoniae; experiment: Antimicrobial activity against multidrug resistant Klebsiella pneumoniae ATCC 11296 by broth dilution method; type: functional
[36] = system: Klebsiella aerogenes; experiment: Antimicrobial activity against multidrug resistant Enterobacter aerogenes isolate 21 by broth dilution method; type: functional
[37] = system: Escherichia coli; experiment: microbe, parasite or virus in culture; settings: ATCC 35218; remark: listed apart in the source
Description: Antimicrobial activity against multidrug resistant Escherichia coli ATCC 35218 harboring pDrive plasmid by broth dilution method

[38] = system: Klebsiella aerogenes; experiment: Antimicrobial activity against multidrug resistant Enterobacter aerogenes isolate 9 by broth dilution method; type: functional
[39] = system: Klebsiella aerogenes; experiment: Antimicrobial activity against multidrug resistant Enterobacter aerogenes isolate 12 by broth dilution method; type: functional
[40] = system: Escherichia coli; experiment: microbe, parasite or virus in culture; settings: DH5[alpha]; remark: listed apart in the source
Description: Antimicrobial activity against multidrug resistant Escherichia coli DH5[alpha] harboring pDrive plasmid expressing ampC gene by broth dilution method

[41] = system: Klebsiella aerogenes; experiment: Antimicrobial activity against multidrug resistant Enterobacter aerogenes isolate 3 by broth dilution method; type: functional
[42] = system: Escherichia coli; experiment: Antimicrobial activity against multidrug resistant Escherichia coli ATCC 35218 by broth dilution method; type: functional
[43] = system: Klebsiella aerogenes; experiment: Antimicrobial activity against multidrug resistant Enterobacter aerogenes isolate 1 by broth dilution method; type: functional
[44] = system: Klebsiella pneumoniae; experiment: Antimicrobial activity against multidrug resistant Klebsiella pneumoniae isolate 8 by broth dilution method; type: functional
[45] = system: Klebsiella aerogenes; experiment: Antimicrobial activity against multidrug resistant Enterobacter aerogenes isolate 20 by broth dilution method; type: functional
[46] = system: Klebsiella pneumoniae; experiment: Antimicrobial activity against multidrug resistant Klebsiella pneumoniae isolate 16 by broth dilution method; type: functional
[47] = system: Klebsiella pneumoniae; experiment: Antimicrobial activity against multidrug resistant Klebsiella pneumoniae isolate 6 by broth dilution method; type: functional
[48] = system: Klebsiella aerogenes; experiment: Antimicrobial activity against multidrug resistant Enterobacter aerogenes isolate 18 by broth dilution method; type: functional
[49] = system: Klebsiella pneumoniae; experiment: Antimicrobial activity against multidrug resistant Klebsiella pneumoniae isolate 5 by broth dilution method; type: functional
[50] = system: Klebsiella aerogenes; experiment: Antimicrobial activity against multidrug resistant Enterobacter aerogenes isolate 14 by broth dilution method; type: functional
[51] = system: Klebsiella aerogenes; experiment: Antimicrobial activity against multidrug resistant Enterobacter aerogenes isolate 16 by broth dilution method; type: functional
[52] = system: Klebsiella aerogenes; experiment: Antimicrobial activity against multidrug resistant Enterobacter aerogenes isolate 10 by broth dilution method; type: functional
[53] = system: Klebsiella aerogenes; experiment: Antimicrobial activity against multidrug resistant Enterobacter aerogenes ATCC 15038 harboring pACM204 plasmid by broth dilution method; type: functional
[54] = system: Klebsiella aerogenes; experiment: Antimicrobial activity against multidrug resistant Enterobacter aerogenes isolate 22 by broth dilution method; type: functional
[55] = system: Escherichia coli; experiment: microbe, parasite or virus in culture; settings: DH5[alpha]; remark: listed apart in the source
Description: Antimicrobial activity against multidrug resistant Escherichia coli DH5[alpha] by broth dilution method

`C[C@@H](O)[C@H]1C(=O)N2C(C(=O)O)=C(SCCNC=N)C[C@H]12` [IMIPENEM ANHYDROUS] showed an MIC [1] of 0.5 µg/mL (≈ 1.67 µM), an MIC [2] of 1 µg/mL (≈ 3.34 µM) and an MIC [3] of 1 µg/mL (≈ 3.34 µM). For the same compound, the MIC [4] was 0.5 µg/mL (≈ 1.67 µM), the MIC [5] was 1 µg/mL (≈ 3.34 µM) and the MIC [6] was 1 µg/mL (≈ 3.34 µM). The MIC [7] was 0.25 µg/mL (≈ 0.835 µM), the MIC [8] was 1 µg/mL (≈ 3.34 µM) and the MIC [9] was 1 µg/mL (≈ 3.34 µM). For the same compound, the MIC [10] was 0.5 µg/mL (≈ 1.67 µM), the MIC [11] was 2 µg/mL (≈ 6.68 µM) and the MIC [12] was 1 µg/mL (≈ 3.34 µM). The MIC [13] was 1 µg/mL (≈ 3.34 µM), the MIC [14] was 0.5 µg/mL (≈ 1.67 µM) and the MIC [15] was 1 µg/mL (≈ 3.34 µM). The MIC [16] was 0.5 µg/mL (≈ 1.67 µM), the MIC [17] was 1 µg/mL (≈ 3.34 µM) and the MIC [18] was 0.25 µg/mL (≈ 0.835 µM). The MIC [19] was 1 µg/mL (≈ 3.34 µM), the MIC [20] was 1 µg/mL (≈ 3.34 µM) and the MIC [21] was 2 µg/mL (≈ 6.68 µM). For the same compound, the MIC [22] was 0.5 µg/mL (≈ 1.67 µM), the MIC [23] was 1 µg/mL (≈ 3.34 µM) and the MIC [24] was 1 µg/mL (≈ 3.34 µM). For the same compound, the MIC [25] was 0.5 µg/mL (≈ 1.67 µM), the MIC [26] was 2 µg/mL (≈ 6.68 µM) and the MIC [27] was 2 µg/mL (≈ 6.68 µM). For the same compound, the MIC [28] was 0.5 µg/mL (≈ 1.67 µM), the MIC [29] was 0.25 µg/mL (≈ 0.835 µM) and the MIC [30] was 0.25 µg/mL (≈ 0.835 µM). The MIC [31] was 2 µg/mL (≈ 6.68 µM), the MIC [32] was 1 µg/mL (≈ 3.34 µM) and the MIC [33] was 0.5 µg/mL (≈ 1.67 µM). The MIC [34] was 2 µg/mL (≈ 6.68 µM), the MIC [35] was 0.5 µg/mL (≈ 1.67 µM) and the MIC [36] was 2 µg/mL (≈ 6.68 µM). For the same compound, the MIC [37] was 0.25 µg/mL (≈ 0.835 µM), the MIC [38] was 1 µg/mL (≈ 3.34 µM) and the MIC [39] was 1 µg/mL (≈ 3.34 µM). The MIC [40] was 2 µg/mL (≈ 6.68 µM), the MIC [41] was 1 µg/mL (≈ 3.34 µM) and the MIC [42] was 0.125 µg/mL (≈ 0.418 µM). It also gave an MIC [43] of 1 µg/mL (≈ 3.34 µM), an MIC [44] of 0.5 µg/mL (≈ 1.67 µM) and an MIC [45] of 1 µg/mL (≈ 3.34 µM). The MIC [46] was 0.5 µg/mL (≈ 1.67 µM), the MIC [47] was 0.5 µg/mL (≈ 1.67 µM) and the MIC [48] was 1 µg/mL (≈ 3.34 µM). For the same compound, the MIC [49] was 0.5 µg/mL (≈ 1.67 µM), the MIC [50] was 2 µg/mL (≈ 6.68 µM) and the MIC [51] was 1 µg/mL (≈ 3.34 µM). The MIC [52] was 1 µg/mL (≈ 3.34 µM), the MIC [53] was 0.5 µg/mL (≈ 1.67 µM) and the MIC [54] was 1 µg/mL (≈ 3.34 µM). The MIC [55] was 0.25 µg/mL (≈ 0.835 µM).
